Values after ≈ are worked out from the molar mass of the structure shown.
What was measured:
[1] = Hemolytic activity in human erythrocytes assessed as induction of stomatocytic shape alteration at hemolysis start concentration after 60 mins by SEM analysis; format: cell-based; settings: erythrocyte, 1 h
[2] = Hemolytic activity in human erythrocytes assessed as release of hemoglobin at 0.17 mg/mL after 60 mins relative to control; format: ADME, cell-based, Erythrocyte; settings: read-out: Activity
[3] = Hemolytic activity in human erythrocytes assessed as discocytic shape up to 1 mg/mL after 60 mins by SEM analysis; format: ADME, cell-based; settings: erythrocyte, 1 h
[4] = Hemolytic activity in human erythrocytes assessed as increase in cell permeability up to 1 mg/mL after 60 mins; format: ADME, cell-based; settings: erythrocyte, 1 h
[5] = Hemolytic activity in human erythrocytes assessed as release of hemoglobin at 0.19 mg/mL after 60 mins relative to control; format: ADME, cell-based, Erythrocyte; settings: read-out: Activity
[6] = Hemolytic activity in human erythrocytes assessed as release of hemoglobin after 60 mins; format: ADME, cell-based, Erythrocyte; settings: 1 h; for IC50: Homo sapiens, Erythrocyte; for Activity: human, erythrocyte
[7] = Hemolytic activity in human erythrocytes assessed as release of hemoglobin at 0.0001 mg/mL after 60 mins relative to control; format: ADME, cell-based, Erythrocyte; settings: read-out: Activity
[8] = Hemolytic activity in human erythrocytes assessed as release of hemoglobin at 0.00001 mg/mL after 60 mins relative to control; format: ADME, cell-based, Erythrocyte; settings: read-out: Activity
[9] = Hemolytic activity in human erythrocytes assessed as release of hemoglobin at 0.63 mg/mL after 60 mins relative to control; format: ADME, cell-based, Erythrocyte; settings: read-out: Activity
[10] = Hemolytic activity in human erythrocytes assessed as induction of echinocytic shape alteration at hemolysis start concentration after 60 mins by SEM analysis; format: cell-based; settings: erythrocyte, 1 h
[11] = Hemolytic activity in human erythrocytes assessed as release of hemoglobin at 0.006 mg/mL after 60 mins relative to control; format: ADME, cell-based, Erythrocyte; settings: read-out: Activity
[12] = Hemolytic activity in human erythrocytes assessed as release of hemoglobin at 0.75 mg/mL after 60 mins relative to control; format: ADME, cell-based, Erythrocyte; settings: read-out: Activity
[13] = Hemolytic activity in human erythrocytes assessed as release of hemoglobin at 0.67 mg/mL after 60 mins relative to control; format: ADME, cell-based, Erythrocyte; settings: read-out: Activity
[14] = Hemolytic activity in human erythrocytes assessed as release of hemoglobin at 0.007 mg/mL after 60 mins relative to control
[15] = Hemolytic activity in human erythrocytes assessed as induction of spheroechinocytic shape alteration at hemolysis start concentration after 60 mins by SEM analysis; format: cell-based; settings: erythrocyte, 1 h

Q: For `C[C@H](CCC(=O)O)[C@H]1CC[C@H]2[C@@H]3CC[C@@H]4C[C@H](O)CC[C@]4(C)[C@H]3C[C@H](O)[C@]12C` [SODIUM DEOXYCHOLATE], which Activity [1] is on record?
A: The Activity was “Toxic”.

Q: What about the hemolysis at 1 h, 0.17 mg/mL [2] of the same molecule?
A: Its hemolysis at 1 h, 0.17 mg/mL is 5%.

Q: For `CN1CCC[C@H]1c1cccnc1` [NICOTINE], which Activity [3] is on record?
A: The Activity was “Non-toxic”.

Q: And the Activity [4]?
A: Its Activity is “Non-toxic”.

Q: With `CN1C(=[Se])CC[C@H]1c1cccnc1` as the molecule, how does the Activity [3] read?
A: The Activity was “Non-toxic”.

Q: And the Activity [4]?
A: The Activity was “Non-toxic”.

Q: Which hemolysis at 1 h, 0.19 mg/mL [5] does the source give for `CN1C(=[Se])CC[C@H]1c1cccnc1.C[C@H](CCC(=O)O)[C@H]1CC[C@H]2[C@@H]3CC[C@@H]4C[C@H](O)CC[C@]4(C)[C@H]3C[C@H](O)[C@]12C` here?
A: The hemolysis at 1 h, 0.19 mg/mL was 5%.

Q: What about the IC50 [6] of the same molecule?
A: Its IC50 is 610 µg/mL.

Q: What about the Activity [6] of the same molecule?
A: The Activity was “Dose-dependent effect”.

Q: For `C[C@H](CCC(=O)O)[C@H]1CC[C@H]2[C@@H]3CC[C@@H]4C[C@H](O)CC[C@]4(C)[C@H]3CC[C@]12C` [LITHOCHOLIC ACID], which Activity [1] is on record?
A: Its Activity is “Toxic”.

Q: What about the hemolysis at 1 h, 0.0001 mg/mL [7] of the same molecule?
A: The hemolysis at 1 h, 0.0001 mg/mL was 5%.

Q: What about the IC50 [6] of the same molecule?
A: Its IC50 is 9 µg/mL (≈ 23.9 µM).

Q: Which Activity [1] does the source give for `CN1CCC[C@H]1c1cccnc1.C[C@H](CCC(=O)O)[C@H]1CC[C@H]2[C@@H]3CC[C@@H]4C[C@H](O)CC[C@]4(C)[C@H]3C[C@H](O)[C@]12C` here?
A: Its Activity is “Toxic”.

Q: What about the hemolysis at 1 h, 1e-05 mg/mL [8] of the same molecule?
A: Its hemolysis at 1 h, 1e-05 mg/mL is 12.4%.

Q: What about the hemolysis at 1 h, 0.63 mg/mL [9] of the same molecule?
A: The hemolysis at 1 h, 0.63 mg/mL was 5%.

Q: And the Activity [4]?
A: Its Activity is “Non-toxic”.

Q: What about the Activity [6] of the same molecule?
A: The Activity was “Dose-dependent effect”.

Q: For `CN1C(=[Se])CC[C@H]1c1cccnc1.C[C@H](CCC(=O)O)[C@H]1CC[C@H]2[C@@H]3CC[C@@H]4C[C@H](O)CC[C@]4(C)[C@H]3CC[C@]12C`, which Activity [10] is on record?
A: Its Activity is “Toxic”.

Q: What about the hemolysis at 1 h, 0.006 mg/mL [11] of the same molecule?
A: The hemolysis at 1 h, 0.006 mg/mL was 5%.

Q: And the IC50 [6]?
A: The IC50 was 180 µg/mL.

Q: And the Activity [6]?
A: Its Activity is “Dose-dependent effect”.

Q: What does the source list for `C[C@H](CCC(=O)O)[C@H]1CC[C@H]2[C@@H]3[C@H](O)C[C@@H]4C[C@H](O)CC[C@]4(C)[C@H]3C[C@H](O)[C@]12C` [CHOLIC ACID]?
A: hemolysis at 1 h, 0.75 mg/mL [12]: 5%; Activity [4]: Non-toxic

Q: Which hemolysis at 1 h, 0.67 mg/mL [13] does the source give for `CN1C(=S)CC[C@H]1c1cccnc1.C[C@H](CCC(=O)O)[C@H]1CC[C@H]2[C@@H]3CC[C@@H]4C[C@H](O)CC[C@]4(C)[C@H]3C[C@H](O)[C@]12C` here?
A: Its hemolysis at 1 h, 0.67 mg/mL is 5%.

Q: And the Activity [4]?
A: Its Activity is “Non-toxic”.

Q: What about the Activity [6] of the same molecule?
A: Its Activity is “Dose-dependent effect”.

Q: With `CN1CCC[C@H]1c1cccnc1.C[C@H](CCC(=O)O)[C@H]1CC[C@H]2[C@@H]3[C@H](O)C[C@@H]4C[C@H](O)CC[C@]4(C)[C@H]3C[C@H](O)[C@]12C` as the molecule, how does the Activity [4] read?
A: Its Activity is “Non-toxic”.

Q: For `CN1C(=S)CC[C@H]1c1cccnc1`, which Activity [3] is on record?
A: Its Activity is “Non-toxic”.

Q: What about the Activity [4] of the same molecule?
A: Its Activity is “Non-toxic”.

Q: Which Activity [1] does the source give for `CN1CCC[C@H]1c1cccnc1.C[C@H](CCC(=O)O)[C@H]1CC[C@H]2[C@@H]3CC[C@@H]4C[C@H](O)CC[C@]4(C)[C@H]3CC[C@]12C` here?
A: The Activity was “Toxic”.

Q: And the hemolysis at 1 h, 1e-05 mg/mL [8]?
A: Its hemolysis at 1 h, 1e-05 mg/mL is 16.7%.

Q: What about the hemolysis at 1 h, 0.007 mg/mL [14] of the same molecule?
A: Its hemolysis at 1 h, 0.007 mg/mL is 5%.

Q: What about the IC50 [6] of the same molecule?
A: Its IC50 is 200 µg/mL.

Q: And the Activity [6]?
A: Its Activity is “Dose-dependent effect”.

Q: What does the source list for `CN1C(=S)CC[C@H]1c1cccnc1.C[C@H](CCC(=O)O)[C@H]1CC[C@H]2[C@@H]3CC[C@@H]4C[C@H](O)CC[C@]4(C)[C@H]3CC[C@]12C`?
A: Activity [10]: Toxic; Activity [15]: Toxic; hemolysis at 1 h, 1e-05 mg/mL [8]: 5%; IC50 [6]: 40 µg/mL; Activity [6]: Dose-dependent effect

From ChEMBL document CHEMBL3112578, “Synthesis and haemolytic activity of novel salts made of nicotine alkaloids and bile acids” (Bioorg Med Chem Lett, 2014)
